For data set [1], the target named is T1, soybean lipoxidase (Glycine max, UniProt P08170).
T1 construct: purchased Sigma-Aldrich (St. Louis, MO, USA) type V-S; host or cells: soybean (plant preparation)
T1 sequence (P08170 1-839): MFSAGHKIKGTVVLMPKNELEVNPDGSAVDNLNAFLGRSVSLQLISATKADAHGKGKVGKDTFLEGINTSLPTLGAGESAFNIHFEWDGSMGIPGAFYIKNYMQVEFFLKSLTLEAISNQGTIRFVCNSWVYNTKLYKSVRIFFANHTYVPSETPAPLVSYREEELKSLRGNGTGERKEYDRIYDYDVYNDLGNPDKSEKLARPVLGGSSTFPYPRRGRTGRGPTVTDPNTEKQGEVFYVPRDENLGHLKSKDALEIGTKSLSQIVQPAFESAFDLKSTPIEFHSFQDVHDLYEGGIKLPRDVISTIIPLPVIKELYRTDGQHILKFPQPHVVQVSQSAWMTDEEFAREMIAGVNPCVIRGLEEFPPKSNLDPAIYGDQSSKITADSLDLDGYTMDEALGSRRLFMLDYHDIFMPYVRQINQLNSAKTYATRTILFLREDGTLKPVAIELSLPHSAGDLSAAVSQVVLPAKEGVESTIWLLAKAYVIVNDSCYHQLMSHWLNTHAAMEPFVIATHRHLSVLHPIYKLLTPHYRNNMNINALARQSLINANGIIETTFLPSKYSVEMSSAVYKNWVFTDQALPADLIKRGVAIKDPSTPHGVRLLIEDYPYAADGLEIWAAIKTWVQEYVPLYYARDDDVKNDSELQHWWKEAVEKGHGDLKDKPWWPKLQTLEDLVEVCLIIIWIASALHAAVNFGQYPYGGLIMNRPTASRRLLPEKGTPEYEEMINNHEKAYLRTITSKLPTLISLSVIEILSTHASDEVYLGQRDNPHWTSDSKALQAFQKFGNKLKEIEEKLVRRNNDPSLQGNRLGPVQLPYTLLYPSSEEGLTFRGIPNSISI
In words: Soybean lipoxidase inhibition, cell-free. The data set is classed as biochemical, Glicine max (L.) Merr. As to conditions: mean±SEM; for IC50: cell-free assay. As for the experimental part:
Lipoxidase catalyses the oxidation of linoleic acid to the conjugated diene, 13-hydroperoxy linoleic acid, which was measured spectrophotometrically at 234 nm on a UV/visible spectrophotometer (UNICAM Helios α). The blank was measured in a reaction mixture with 20 µl of individual naphthoquinones solution, 1 ml of phosphate buffer (pH 9) and 20 µl of soybean lipoxidase 500 U. After 5 min pre-incubation at room temperature, the reaction was started by addition of 50 µl of substrate (linoleic acid) at 2 mM in ethanol. The reaction time was 3 min.

Data set [2] concerns RBL-2H3 cells. In words: IgE/antigen-induced RBL-2H3 basophils' degranulation (β-hexosaminidase release). The following applies: for Effect on IgE/antigen-induced degranulation (in words): naphthazarin 0.1 µM, plumbagin 1 µM. The data set is classed as cell-based, rat. As for the experimental part:
RBL-2H3 cells were seeded at 3.0×10^5 cells/mL in 24-wells plate (1 mL/well), and assayed after 24h at near-confluent stage (∼90%). Two different degranulation stimuli were used: calcium ionophore A23187 500 ng/mL (1 µM) and an immunologic stimulus (100 ng/mL IgE anti-DNP followed by 100 ng/mL DNP-BSA) that we refer to as IgE/antigen (Fig. 2). […] Thus, the ability of naphthoquinones to reduce β-hexosaminidase release was quantified for both stimuli, whereas effects upon histamine were only quantified with the A23187 stimulus, given the low histamine release and poor signal to noise achieved with IgE/antigen.
When the IgE/antigen was used as stimulus, cells were incubated during 16 h with 100 ng/ml IgE anti-DNP and with individual naphthoquinones diluted in culture medium. After washing twice with Dulbecco's phosphate buffered saline (DPBS), cells were treated for 1 h, at 37°C, with 100 ng/ml DNP-BSA and with individual naphthoquinones diluted in EBSS supplemented with 0.1% BSA (Fig. 2A). After treatments, supernatants were collected in order to quantify released β-hexosaminidase and released histamine, while cell viability assay was performed on adherent cells.
The release of β-hexosaminidase from stimulated-RBL-2H3 cells was measured as previously described. In a 96-wells plate, 50 µl of substrate solution [p-nitrophenyl N-acetyl-D-glucosamine 1.3 mg/ml in citrate buffer (pH 4.5)] were added to 30 µl of supernatant. The plate was incubated at 37°C, during 1 h.

The subject of data set [3] is hyaluronidase from bovine tests (type IV-S; EC 3.2.1.35). Briefly: Hyaluronidase inhibition, cell-free (Morgan-Elson). The following applies: for Hyaluronidase inhibition (%): maximal inhibition, mean±SEM. The data set is classed as biochemical. As to the method: The reaction product, N-acetyl-sugar, was quantified according Morgan-Elson colour reaction with minor modifications. The Morgan-Elson reaction was started by addition of 25 µl disodium tetraborate 0.8 M and subsequent heating in a boiling water bath during 3 min. After cooling, 750 µl p-dimethylaminobenzaldehyde (DMAB) was added and the reaction mixture was incubated at 37°C for 20 min. […] The measurement was made spectrophotometrically, at 560 nm, in a microplate reader (Multiskan ASCENT Thermo®), [24]. Sodium cromoglycate was used as a positive control for inhibition.

The subject of data set [4] is RBL-2H3 cells. In words: Calcium ionophore A23187-induced RBL-2H3 degranulation (β-hexosaminidase release). The data set is classed as cell-based, rat. The following applies: for Effect on A23187 (calcium ionophore)-induced degranulation (in words): naphthazarin 0.1 µM, plumbagin 1 µM, diospyrin 10 µM, others at maximal tested concentrations. As for the experimental part: (§1) RBL-2H3 cells were seeded at 3.0×10^5 cells/mL in 24-wells plate (1 mL/well), and assayed after 24h at near-confluent stage (∼90%). Two different degranulation stimuli were used: calcium ionophore A23187 500 ng/mL (1 µM) and an immunologic stimulus (100 ng/mL IgE anti-DNP followed by 100 ng/mL DNP-BSA) that we refer to as IgE/antigen (Fig. 2). Both stimuli induced degranulation, which was quantified by β-hexosaminidase and histamine release. With IgE/antigen, β-hexosaminidase release (p-nitrophenolate absorbance) increased by 65.4±6.8% above basal (n = 16; P<0.001), whereas histamine increased from the basal value of 0.156±0.151 µM towards 0.521±0.186 µM (n = 10; P<0.05). With A23187, β-hexosaminidase release increased by 187±18.9% above basal (n = 12; P<0.001), whereas histamine increased towards 2.43±0.330 µM (n = 12; P<0.001). Thus, the ability of naphthoquinones to reduce β-hexosaminidase release was quantified for both stimuli, whereas effects upon histamine were only quantified with the A23187 stimulus, given the low histamine release and poor signal to noise achieved with IgE/antigen.
Before treatment with A23187, cells were incubated with individual naphthoquinones during 15 min, at 37°C. After that, A23187 1 µM was added and cells incubated for 30 min, at 37°C (Fig. 2B). Compounds were freshly diluted prior to cell exposure using EBSS supplemented with 0.1% BSA [21]. β-hexosaminidase and histamine release was quantified in supernatants, whereas the MTT cell viability assay was performed on adherent cells.
The release of β-hexosaminidase from stimulated-RBL-2H3 cells was measured as previously described. In a 96-wells plate, 50 µl of substrate solution [p-nitrophenyl N-acetyl-D-glucosamine 1.3 mg/ml in citrate buffer (pH 4.5)] were added to 30 µl of supernatant. The plate was incubated at 37°C, during 1 h. The reaction was stopped by the addition of 80 µl of NaOH 0.5 M and the reaction product, p-nitrophenolate, was measured spectrophotometrically at 405 nm, in a microplate reader (Multiskan ASCENT Thermo®).

For data set [5], the system named is RBL-2H3 cells. The data set is classed as cell-based. The following applies: rat. As to the method:
Cell viability was assessed by the cellular dehydrogenases' dependent reduction of MTT to formazan, which was quantified by the measurement of optical density at 550 nm using a microplate reader (Multiskan ASCENT Thermo®), as described before.

The subject of data set [6] is peripheral blood mononuclear cells (PBMC). Set-up: method as in PMID 21134493. The following applies: 5 µM; phytohemagglutinin-stimulated PBMC; cited from earlier work.
For data set [7], the system named is leukotriene C4 production. In words: Leukotriene C4 production in IgE/antigen-stimulated RBL-2H3 cells (EIA). The data set is classed as cell-based, rat. The following applies: 1 µM.
Data set [8] relates to RBL-2H3 cells. In words: Histamine release in A23187-stimulated RBL-2H3 cells. As to conditions: 10 µM; A23187 1 µM stimulus. The data set is classed as cell-based, rat. As to the method:
as §1, with “With A23187, β-hexosaminidase release increased by 187±18.9% above basal (n = 12; P<0.001), whereas histamine increased towards 2.43±0.330 µM (n = 12; P<0.001).” left out
Before treatment with A23187, cells were incubated with individual naphthoquinones during 15 min, at 37°C. […] Compounds were freshly diluted prior to cell exposure using EBSS supplemented with 0.1% BSA [21]. β-hexosaminidase and histamine release was quantified in supernatants, whereas the MTT cell viability assay was performed on adherent cells. […]

Setting [9] is: Rattus norvegicus, RBL-2H3, maximal inhibition, mean±SEM, read-out: Degranulation inhibition (%) IgE/antigen (decrease of β-hexosaminidase release).
Setting [10] is: Rattus norvegicus, RBL-2H3, maximal inhibition, mean±SEM, read-out: Degranulation inhibition (%) A23187 (decrease of β-hexosaminidase release).

Structures are written as SMILES. “Also recorded” adds a separate entry of the source.

For `O=C1C=CC(=O)c2c(O)ccc(O)c21` [Naphthazarin, naphthazarin], in data set [1] (maximal inhibition), the inhibition at 183.5 µM is 54.4 ± 9.33%. Also, it took 142 ± 27.1 µM to reach half-maximal inhibition in data set [1] (IC50). Besides, the inhibition at 0.1 µM was 30.8 ± 3.82% in data set [2] (Rattus norvegicus, RBL-2H3, 0.1 µM, maximal inhibition, mean±SEM, read-out: Degranulation inhibition (%) IgE/antigen (decrease of β-hexosaminidase release)) and under 15% in data set [4] (Rattus norvegicus, RBL-2H3, 0.1 µM, maximal inhibition, mean±SEM, read-out: Degranulation inhibition (%) A23187 (decrease of β-hexosaminidase release)). For the same compound, the “Effect on IgE/antigen-induced degranulation (in words)” value in data set [2] was “decreased IgE/antigen-induced degranulation”. Further, the “Hyaluronidase inhibition (%)” value in data set [3] (100 µM) is reported as 16.9±2.45 (100 µM) %. Moreover, in data set [4], the “Effect on A23187 (calcium ionophore)-induced degranulation (in words)” value was “failed to reduce ionophore-induced degranulation”.
For the compound `CC1=CC(=O)c2c(O)cccc2C1=O` [Plumbagin, plumbagin], in data set [1] (maximal inhibition), the inhibition at 183.5 µM worked out at 49.8 ± 5.23%. Besides, the IC50 (as a rule, the concentration that gives 50% inhibition) in data set [1] is over 184 µM. Further, the inhibition at 1 µM in data set [2] (setting [9]) and in data set [4] (setting [10]) was under 15% in each case. Further, the “Effect on IgE/antigen-induced degranulation (in words)” value in data set [2] was “did not prevent degranulation”. The compound further registered a Maximum non-toxic concentration in data set [5] of 1 µM. Besides, the “Hyaluronidase inhibition (%)” value in data set [3] (100 µM) was < 15 (100 µM) %. Moreover, the “Effect on A23187 (calcium ionophore)-induced degranulation (in words)” value in data set [4] is “did not prevent degranulation”. Besides, in data set [6], the “Effect on cytokines production (in words)” value is “inhibited cytokines production”.
Regarding `O=C(O)c1cc(=O)c2c(OCC(O)COc3cccc4oc(C(=O)O)cc(=O)c34)cccc2o1` [sodium cromoglycate, Sodium cromoglycate, reference compound], in data set [3] (positive control), the “Concentration required for complete hyaluronidase inhibition” value is reported as 10 mM.
In the case of `Cc1cc(O)c2c(c1)C(=O)C(c1c(C)cc3c(c1O)C(=O)C1OC1C3=O)=CC2=O` (stereo not drawn) [Diosquinone, diosquinone], the “Effect on leukotriene (LT) C4 levels evoked by IgE/antigen (in words)” value in data set [7] was “unaffected”. In data set [1] (maximal inhibition), this compound had an inhibition at 183.5 µM of 96.5 ± 0.92%. Further, the midpoint of inhibition in data set [1], the IC50, lay at 83.8 ± 9.33 µM. Besides, the inhibition at 1 µM in data set [2] (setting [9]) was 18.4 ± 8.07%; in data set [4] (setting [10]), under 15%. Moreover, the “Hyaluronidase inhibition (%)” value in data set [3] (100 µM) is given as < 15 (100 µM) %.
On to `O=C1C=CC(=O)c2c(O)cccc21` [Juglone, juglone], for which the inhibition at 183.5 µM in data set [1] (maximal inhibition) worked out at 53.1 ± 13.8%. For the same compound, the inhibition at 10 µM in data set [2] (Rattus norvegicus, RBL-2H3, 10 µM, maximal inhibition, mean±SEM, read-out: Degranulation inhibition (%) IgE/antigen (decrease of β-hexosaminidase release)) was 39.2 ± 13.3%; in data set [4] (setting [10]), under 15%. In data set [3] (100 µM), the “Hyaluronidase inhibition (%)” value is given as < 15 (100 µM) %.
In the case of `O=c1c(O)c(-c2ccc(O)c(O)c2)oc2cc(O)cc(O)c12` [Quercetin, reference compound], in data set [4] (A23187 assay, 10-fold higher than in IgE/antigen assay), the “Concentration required to reduce β-hexosaminidase release” value was found to be 100 µM.
As to `Cc1cc(O)c2c(c1)C(=O)C(c1c(C)cc3c(c1O)C(=O)C=CC3=O)=CC2=O` [Diospyrin, diospyrin], the “Effect on leukotriene (LT) C4 levels evoked by IgE/antigen (in words)” value in data set [7] is on record as “unaffected; also recorded: unable to reduce leukotrien C4”. The inhibition at 36.7 µM in data set [1] (36.7 µM, maximal inhibition) worked out at 65.6 ± 6.24%. The midpoint of inhibition in data set [1], the IC50, lay at 28.9 ± 2.53 µM. Besides, in data set [2] (setting [9]), the inhibition at 1 µM was under 15%. In addition, in data set [8], the “Decrease of histamine release” value turned out to be 51.4±12.8%. Further, the “Hyaluronidase inhibition (%)” value in data set [3] (20 µM) is on record as < 15 (20 µM) %. Also, the inhibition at 10 µM in data set [4] (setting [10]) came to 56.8 ± 14.6%. The “Effect on A23187 (calcium ionophore)-induced degranulation (in words)” value in data set [4] is recorded as “reduced degranulation”.
